# Test results from ChEMBL document CHEMBL4118098, “Discovery of DS28120313 as a potent orally active hepcidin production inhibitor: Design and optimization of novel 4,6-disubstituted indazole derivatives” (Bioorg Med Chem Lett, 2017).
# Experiments:
# [1] = target: Dual specificity tyrosine-phosphorylation-regulated kinase 1B (Homo sapiens) (UniProt Q9Y463); experiment: Inhibition of DYRK1B (unknown origin) at 0.164 uM relative to control
# [2] = target: Mitogen-activated protein kinase kinase kinase kinase 4 (Homo sapiens) (UniProt O95819); experiment: Inhibition of HGK (unknown origin) at 0.164 uM relative to control
# [3] = target: T1, Tyrosine-protein kinase TXK (Homo sapiens) (UniProt P42681); experiment: Inhibition of TXK (unknown origin) at 0.164 uM relative to control
# T1 sequence (whole entry): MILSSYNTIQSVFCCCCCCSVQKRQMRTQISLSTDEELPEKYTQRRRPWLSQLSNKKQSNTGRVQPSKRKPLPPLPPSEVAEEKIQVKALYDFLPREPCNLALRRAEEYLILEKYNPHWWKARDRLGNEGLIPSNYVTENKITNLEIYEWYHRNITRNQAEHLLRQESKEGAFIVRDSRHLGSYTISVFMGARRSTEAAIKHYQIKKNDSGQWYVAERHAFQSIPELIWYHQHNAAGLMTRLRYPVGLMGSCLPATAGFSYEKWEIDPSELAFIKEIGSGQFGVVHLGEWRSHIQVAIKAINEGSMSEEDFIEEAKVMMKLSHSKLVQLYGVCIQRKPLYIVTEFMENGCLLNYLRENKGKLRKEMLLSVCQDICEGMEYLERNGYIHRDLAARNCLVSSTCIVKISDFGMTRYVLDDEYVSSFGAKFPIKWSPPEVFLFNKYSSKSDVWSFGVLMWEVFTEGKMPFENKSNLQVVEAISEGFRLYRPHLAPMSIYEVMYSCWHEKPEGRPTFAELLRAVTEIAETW
# [4] = target: Ribosomal protein S6 kinase alpha-6 (Homo sapiens) (UniProt Q9UK32); experiment: Inhibition of RSK4 (unknown origin) at 0.164 uM relative to control
# [5] = target: Mitogen-activated protein kinase 13 (Homo sapiens) (UniProt O15264); experiment: Inhibition of p38-delta (unknown origin) at 0.164 uM relative to control
# [6] = target: Proto-oncogene tyrosine-protein kinase Src (Homo sapiens) (UniProt P12931); experiment: Inhibition of SRC (unknown origin) at 0.164 uM relative to control
# [7] = target: Fibroblast growth factor receptor 1 (Homo sapiens) (UniProt P11362); experiment: Inhibition of FGFR1 (unknown origin) at 0.164 uM relative to control
# [8] = target: Casein kinase I isoform gamma-1 (Homo sapiens) (UniProt Q9HCP0); experiment: Inhibition of CK1-gamma1 (unknown origin) at 0.164 uM relative to control
# [9] = target: Casein kinase I isoform gamma-3 (Homo sapiens) (UniProt Q9Y6M4); experiment: Inhibition of CK1-gamma3 (unknown origin) at 0.164 uM relative to control
# [10] = target: T2, Serine/threonine-protein kinase DCLK1 (Homo sapiens) (UniProt O15075); experiment: Inhibition of DCAMKL1 (unknown origin) at 0.45 uM relative to control
# T2 sequence (whole entry): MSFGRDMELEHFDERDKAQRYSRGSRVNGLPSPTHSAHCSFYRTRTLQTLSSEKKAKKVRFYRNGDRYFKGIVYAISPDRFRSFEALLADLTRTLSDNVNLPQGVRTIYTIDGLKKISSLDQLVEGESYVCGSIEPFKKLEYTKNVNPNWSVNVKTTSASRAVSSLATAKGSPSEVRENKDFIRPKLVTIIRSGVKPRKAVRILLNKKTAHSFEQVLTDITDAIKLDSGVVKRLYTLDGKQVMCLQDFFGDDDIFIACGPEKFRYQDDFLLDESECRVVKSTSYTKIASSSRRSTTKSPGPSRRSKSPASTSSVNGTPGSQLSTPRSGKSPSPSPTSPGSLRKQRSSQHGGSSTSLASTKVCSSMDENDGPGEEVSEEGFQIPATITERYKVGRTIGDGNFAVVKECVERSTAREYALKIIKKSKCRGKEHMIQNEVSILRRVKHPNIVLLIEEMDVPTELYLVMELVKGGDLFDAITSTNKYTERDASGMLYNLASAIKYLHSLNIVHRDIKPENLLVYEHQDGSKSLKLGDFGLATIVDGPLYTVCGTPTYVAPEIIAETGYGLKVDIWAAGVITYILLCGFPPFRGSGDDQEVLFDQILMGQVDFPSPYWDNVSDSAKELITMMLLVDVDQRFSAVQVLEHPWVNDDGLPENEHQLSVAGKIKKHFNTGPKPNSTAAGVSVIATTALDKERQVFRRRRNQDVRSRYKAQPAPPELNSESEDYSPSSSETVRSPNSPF
# [11] = target: Mitogen-activated protein kinase 1 (Homo sapiens) (UniProt P28482); experiment: Inhibition of Erk2 (unknown origin) at 0.45 uM relative to control
# [12] = target: Protein kinase C zeta type (Homo sapiens) (UniProt Q05513); experiment: Inhibition of PKC-zeta (unknown origin) at 0.19 uM relative to control
# [13] = system: Mitogen-activated protein kinase 14 (Homo sapiens), Q16539 [T106M]; experiment: Inhibition of SAPK2a T106M mutant (unknown origin) at 0.19 uM relative to control
# [14] = target: Homeodomain-interacting protein kinase 3 (Homo sapiens) (UniProt Q9H422); experiment: Inhibition of HIPK3 (unknown origin) at 0.19 uM relative to control
# [15] = target: Aurora kinase B (Homo sapiens) (UniProt Q96GD4); experiment: Inhibition of AurB (unknown origin) at 0.19 uM relative to control
# [16] = target: Phosphorylase b kinase gamma catalytic chain, liver/testis isoform (Homo sapiens) (UniProt P15735); experiment: Inhibition of PhKg2 (unknown origin) at 0.19 uM relative to control
# [17] = system: Fibroblast growth factor receptor 4 (Homo sapiens), P22455 [V550L]; experiment: Inhibition of FGFR4 V550L mutant (unknown origin) at 0.19 uM relative to control
# [18] = target: Cyclin-dependent kinase 9 (Homo sapiens) (UniProt P50750); experiment: Inhibition of CDK9 (unknown origin) at 0.19 uM relative to control
# [19] = target: Fibroblast growth factor receptor 4 (Homo sapiens) (UniProt P22455); experiment: Inhibition of FGFR4 (unknown origin) at 0.19 uM relative to control
# [20] = system: Tyrosine-protein kinase ABL1 (Homo sapiens), P00519 [Q252H]; experiment: Inhibition of Abl Q252H mutant (unknown origin) at 0.19 uM relative to control
# [21] = target: Receptor tyrosine-protein kinase erbB-4 (Homo sapiens) (UniProt Q15303); experiment: Inhibition of HER4 (unknown origin) at 0.19 uM relative to control
# [22] = target: Serine/threonine-protein kinase Chk1 (Homo sapiens) (UniProt O14757); experiment: Inhibition of CHK1 (unknown origin) at 0.19 uM relative to control
# [23] = target: Protein kinase C eta type (Homo sapiens) (UniProt P24723); experiment: Inhibition of PKC-eta (unknown origin) at 0.19 uM relative to control
# [24] = target: Casein kinase I isoform gamma-2 (Homo sapiens) (UniProt P78368); experiment: Inhibition of CK1-gamma2 (unknown origin) at 0.19 uM relative to control
# Chain of Ribosomal protein S6 kinase alpha-6 (Homo sapiens) (Q9UK32 whole entry): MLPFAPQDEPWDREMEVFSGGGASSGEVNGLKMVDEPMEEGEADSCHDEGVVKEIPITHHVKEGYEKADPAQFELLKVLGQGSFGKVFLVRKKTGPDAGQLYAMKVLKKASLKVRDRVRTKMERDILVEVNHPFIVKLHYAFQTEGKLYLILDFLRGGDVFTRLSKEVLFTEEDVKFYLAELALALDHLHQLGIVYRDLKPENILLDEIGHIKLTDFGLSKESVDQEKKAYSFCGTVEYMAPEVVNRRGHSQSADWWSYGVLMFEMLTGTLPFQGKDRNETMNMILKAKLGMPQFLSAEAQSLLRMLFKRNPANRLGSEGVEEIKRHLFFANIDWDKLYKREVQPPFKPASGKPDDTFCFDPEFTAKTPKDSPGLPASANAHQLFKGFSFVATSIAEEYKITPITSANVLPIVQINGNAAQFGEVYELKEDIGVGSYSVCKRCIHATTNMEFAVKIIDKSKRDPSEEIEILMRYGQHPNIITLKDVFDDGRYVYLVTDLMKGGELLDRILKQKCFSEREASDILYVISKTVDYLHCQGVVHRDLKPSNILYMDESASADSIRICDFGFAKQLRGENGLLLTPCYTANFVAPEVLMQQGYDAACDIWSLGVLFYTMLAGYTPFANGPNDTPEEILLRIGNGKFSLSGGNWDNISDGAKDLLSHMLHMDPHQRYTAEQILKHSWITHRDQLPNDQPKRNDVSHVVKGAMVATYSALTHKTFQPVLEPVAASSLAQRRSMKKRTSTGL
# Chain of Fibroblast growth factor receptor 4 (Homo sapiens) (P22455 22-802 limits assumed): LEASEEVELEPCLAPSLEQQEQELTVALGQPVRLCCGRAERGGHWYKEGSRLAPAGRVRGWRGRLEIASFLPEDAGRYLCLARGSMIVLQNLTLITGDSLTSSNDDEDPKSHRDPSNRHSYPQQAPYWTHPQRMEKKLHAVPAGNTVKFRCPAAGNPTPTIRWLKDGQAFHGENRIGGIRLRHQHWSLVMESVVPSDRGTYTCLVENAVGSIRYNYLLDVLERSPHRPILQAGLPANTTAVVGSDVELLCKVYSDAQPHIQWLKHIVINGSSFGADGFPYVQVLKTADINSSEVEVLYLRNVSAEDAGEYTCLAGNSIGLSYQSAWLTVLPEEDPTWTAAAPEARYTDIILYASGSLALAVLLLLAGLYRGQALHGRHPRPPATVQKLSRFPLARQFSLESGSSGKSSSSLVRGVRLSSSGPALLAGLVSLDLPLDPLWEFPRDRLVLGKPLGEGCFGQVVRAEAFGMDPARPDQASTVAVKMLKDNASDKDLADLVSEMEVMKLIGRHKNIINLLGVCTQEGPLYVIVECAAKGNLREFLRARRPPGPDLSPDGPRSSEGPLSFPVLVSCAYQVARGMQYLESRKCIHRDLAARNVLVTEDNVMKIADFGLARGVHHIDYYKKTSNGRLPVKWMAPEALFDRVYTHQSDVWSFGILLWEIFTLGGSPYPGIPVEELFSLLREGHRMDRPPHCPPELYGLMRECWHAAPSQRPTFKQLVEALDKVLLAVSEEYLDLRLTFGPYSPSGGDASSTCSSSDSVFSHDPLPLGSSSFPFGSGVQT
# Chain of Protein kinase C eta type (Homo sapiens) (P24723 whole entry, canonical isoform): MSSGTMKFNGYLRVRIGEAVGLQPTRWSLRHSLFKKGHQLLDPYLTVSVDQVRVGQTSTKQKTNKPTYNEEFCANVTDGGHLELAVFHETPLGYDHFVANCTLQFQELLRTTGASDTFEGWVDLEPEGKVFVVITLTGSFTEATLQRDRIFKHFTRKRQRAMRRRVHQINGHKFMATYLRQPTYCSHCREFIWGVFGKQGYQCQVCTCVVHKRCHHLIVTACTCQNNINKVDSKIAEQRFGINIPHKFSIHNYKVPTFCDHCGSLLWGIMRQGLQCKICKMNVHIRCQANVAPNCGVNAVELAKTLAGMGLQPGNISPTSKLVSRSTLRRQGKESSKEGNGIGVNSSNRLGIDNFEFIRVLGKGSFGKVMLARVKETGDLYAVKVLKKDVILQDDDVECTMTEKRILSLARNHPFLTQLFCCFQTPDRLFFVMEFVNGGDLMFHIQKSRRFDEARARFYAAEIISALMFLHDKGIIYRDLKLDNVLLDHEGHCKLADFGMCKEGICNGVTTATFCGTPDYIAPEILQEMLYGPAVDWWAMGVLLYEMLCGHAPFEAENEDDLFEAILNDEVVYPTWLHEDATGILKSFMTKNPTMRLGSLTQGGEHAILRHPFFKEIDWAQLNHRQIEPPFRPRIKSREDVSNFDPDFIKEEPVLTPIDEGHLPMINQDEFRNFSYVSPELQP
# Chain of Aurora kinase B (Homo sapiens) (Q96GD4 whole entry, canonical isoform): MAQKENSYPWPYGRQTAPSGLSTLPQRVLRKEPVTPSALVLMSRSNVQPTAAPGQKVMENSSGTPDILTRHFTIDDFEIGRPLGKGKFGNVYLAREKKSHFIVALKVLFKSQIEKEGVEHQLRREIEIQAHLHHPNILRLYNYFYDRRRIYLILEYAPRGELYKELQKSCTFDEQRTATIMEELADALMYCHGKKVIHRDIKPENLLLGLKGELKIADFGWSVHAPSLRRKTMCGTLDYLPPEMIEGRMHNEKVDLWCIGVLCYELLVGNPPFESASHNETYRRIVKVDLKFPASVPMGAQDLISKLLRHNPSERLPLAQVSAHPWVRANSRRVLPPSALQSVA
# Chain of Proto-oncogene tyrosine-protein kinase Src (Homo sapiens) (P12931 2-536 limits assumed): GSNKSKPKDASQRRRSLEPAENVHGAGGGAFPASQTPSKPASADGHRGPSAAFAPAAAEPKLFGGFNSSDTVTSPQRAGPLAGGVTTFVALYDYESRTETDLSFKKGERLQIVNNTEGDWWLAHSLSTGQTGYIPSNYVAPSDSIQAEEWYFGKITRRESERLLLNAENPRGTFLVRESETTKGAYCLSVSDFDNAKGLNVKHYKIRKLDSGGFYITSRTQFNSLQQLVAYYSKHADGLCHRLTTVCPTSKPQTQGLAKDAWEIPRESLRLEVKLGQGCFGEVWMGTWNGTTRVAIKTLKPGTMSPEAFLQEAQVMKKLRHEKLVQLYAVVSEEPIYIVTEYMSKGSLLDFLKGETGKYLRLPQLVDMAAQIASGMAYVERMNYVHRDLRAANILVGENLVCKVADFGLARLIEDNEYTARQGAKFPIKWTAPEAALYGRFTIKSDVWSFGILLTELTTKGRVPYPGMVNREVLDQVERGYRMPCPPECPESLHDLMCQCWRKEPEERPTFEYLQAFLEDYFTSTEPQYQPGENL
# Chain of Mitogen-activated protein kinase 14 (Homo sapiens), Q16539 [T106M] (Q16539 whole entry T106M): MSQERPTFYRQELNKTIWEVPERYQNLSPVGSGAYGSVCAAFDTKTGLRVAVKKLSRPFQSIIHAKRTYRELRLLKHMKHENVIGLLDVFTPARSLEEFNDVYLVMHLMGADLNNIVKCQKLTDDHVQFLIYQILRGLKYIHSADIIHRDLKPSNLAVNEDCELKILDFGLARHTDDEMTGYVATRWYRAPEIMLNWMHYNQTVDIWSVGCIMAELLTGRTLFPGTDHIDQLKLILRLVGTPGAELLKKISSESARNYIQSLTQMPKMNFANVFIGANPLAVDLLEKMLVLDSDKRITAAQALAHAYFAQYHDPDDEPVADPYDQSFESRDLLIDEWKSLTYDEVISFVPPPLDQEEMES
# Chain of Homeodomain-interacting protein kinase 3 (Homo sapiens) (Q9H422 whole entry, looked up): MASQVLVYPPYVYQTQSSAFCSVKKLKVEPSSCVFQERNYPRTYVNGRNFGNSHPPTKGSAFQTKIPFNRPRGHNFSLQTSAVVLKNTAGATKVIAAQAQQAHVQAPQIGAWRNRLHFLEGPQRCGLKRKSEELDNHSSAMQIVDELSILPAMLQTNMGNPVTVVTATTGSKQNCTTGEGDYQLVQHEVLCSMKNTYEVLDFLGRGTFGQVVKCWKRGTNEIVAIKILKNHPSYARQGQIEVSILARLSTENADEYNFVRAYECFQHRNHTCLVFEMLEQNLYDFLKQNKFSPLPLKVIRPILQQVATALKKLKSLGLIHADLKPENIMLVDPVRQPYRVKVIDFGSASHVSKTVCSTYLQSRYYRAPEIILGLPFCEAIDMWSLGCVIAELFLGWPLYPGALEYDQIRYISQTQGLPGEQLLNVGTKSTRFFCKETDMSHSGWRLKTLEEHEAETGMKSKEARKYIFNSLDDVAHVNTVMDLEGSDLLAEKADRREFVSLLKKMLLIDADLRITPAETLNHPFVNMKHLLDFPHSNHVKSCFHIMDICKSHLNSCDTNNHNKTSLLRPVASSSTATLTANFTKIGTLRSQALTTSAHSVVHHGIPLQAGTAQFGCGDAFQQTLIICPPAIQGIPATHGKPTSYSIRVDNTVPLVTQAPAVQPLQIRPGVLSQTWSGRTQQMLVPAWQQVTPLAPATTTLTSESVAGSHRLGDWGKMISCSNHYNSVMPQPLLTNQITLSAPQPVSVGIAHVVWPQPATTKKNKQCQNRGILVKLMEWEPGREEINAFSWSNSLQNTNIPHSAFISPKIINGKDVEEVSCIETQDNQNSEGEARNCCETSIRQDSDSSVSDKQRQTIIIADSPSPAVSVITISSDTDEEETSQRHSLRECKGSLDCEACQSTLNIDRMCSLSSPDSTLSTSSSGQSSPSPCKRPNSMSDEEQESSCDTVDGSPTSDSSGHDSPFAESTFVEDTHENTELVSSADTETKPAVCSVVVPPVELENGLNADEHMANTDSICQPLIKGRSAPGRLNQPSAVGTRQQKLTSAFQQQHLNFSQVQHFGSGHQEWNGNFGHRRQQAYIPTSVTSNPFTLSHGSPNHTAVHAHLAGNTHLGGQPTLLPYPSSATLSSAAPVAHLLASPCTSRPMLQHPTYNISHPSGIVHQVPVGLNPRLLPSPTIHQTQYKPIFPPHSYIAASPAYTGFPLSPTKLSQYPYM
# Chain of Cyclin-dependent kinase 9 (Homo sapiens) (P50750 whole entry): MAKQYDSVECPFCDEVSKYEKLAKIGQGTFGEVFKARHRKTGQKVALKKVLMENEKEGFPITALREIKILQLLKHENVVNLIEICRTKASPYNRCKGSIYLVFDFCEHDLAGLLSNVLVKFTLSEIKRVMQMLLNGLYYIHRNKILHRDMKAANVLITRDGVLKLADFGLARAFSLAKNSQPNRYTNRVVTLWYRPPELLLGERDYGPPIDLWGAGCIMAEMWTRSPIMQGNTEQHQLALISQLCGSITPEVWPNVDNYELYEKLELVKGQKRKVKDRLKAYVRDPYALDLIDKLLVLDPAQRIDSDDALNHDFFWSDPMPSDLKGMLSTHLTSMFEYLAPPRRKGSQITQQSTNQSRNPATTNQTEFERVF
smiles,measurement,setting,value
COC(=O)Nc1cc(-c2c(C3CC3)n[nH]c2C)cc2[nH]ncc12,inhibition,[1],0.3%
same,inhibition,[2],5%
same,inhibition,[3],1.3%
same,inhibition,[4],13.3%
same,inhibition,[5],0.7%
same,inhibition,[6],5.7%
same,inhibition,[7],9.7%
same,inhibition,[8],-2.7%
same,inhibition,[9],5.3%
Cc1n[nH]c(C)c1-c1ccc2c(NC(=O)c3ccc(N4CCN(C)CC4)cc3)n[nH]c2c1,inhibition,[10],0%
same,inhibition,[11],-0.3%
Cc1[nH]nc(C2CC2)c1-c1ccc2c(-c3ccc(N4CCN(C)CC4)nc3)n[nH]c2c1,inhibition,[12],2.3%
same,inhibition,[13],0.3%
same,inhibition,[14],1%
same,inhibition,[15],-2.3%
same,inhibition,[16],-4%
same,inhibition,[17],0.7%
same,inhibition,[18],-1%
same,inhibition,[19],5.3%
same,inhibition,[20],71%
same,inhibition,[21],-8.7%
same,inhibition,[22],-8.7%
same,inhibition,[23],2.7%
same,inhibition,[24],3.3%
